The values below come from patent publication US8968663B2, “Monitoring membrane-bound proteins” (University of Utah Research Foundation, priority 2011, dated 2015).

Experiment [1] relates to ShakerB-IR K^+ ion channel. As to the kind of experiment: Two-electrode voltage clamp of ShakerB-IR expressing Xenopus oocytes with Cu^2+ applied as ion channel blocker. The settings on record: ~120 μM Cu^2+ pipetted above the cell, FIG. 10. It is filed as cell-based. How it is done:
Complementary deoxyribonucleic acid (cDNA) for the Shaker ion-channel variant ShakerB-IR (inactivation removed) was transformed in E. coli and linearized using the restriction enzyme, Kpn-1. cRNA was transcribed from linearized DNA, and 32 nL/cell of the transcribed RNA was injected into Xenopus oocytes. Recordings were done 24-48 hours after injection to allow time for protein expression. Currents were measured using two-microelectrode voltage clamp to verify ShakerB-IR ion channel expression. Oocytes were stored in Superbarths Oocyte media (88 mM NaCl, 1 mM KCl, 0.41 mM CaCl2, 0.33 mM Ca(NO3)2, 1 mM MgSO4, 2.4 mM NaHCO3, 10 mM HEPES, 1 mM pyruvate and 50 μg/ml gentamicin, titrated using NaOH to a pH of 7.4) at 17° Celsius (C.). Oocytes were also bathed in this media during RF recording.
(§1) Oocytes were positioned into a recording chamber consisting of an RF belt electrode surrounding the meridian of the cell and a ground electrode located in the oocyte media above an axial pole of the cell. Two glass micropipettes (1-3 MΩ access resistance) filled with 3M KCL were carefully guided into the oocyte using an upright microscope (Zeiss AxioTech). One micropipette was attached to a voltage-measuring headstage (HS-2Ax1 LU, Molecular Devices, Sunnyvale, Calif.) and the second micropipette was attached to a current-injecting headstage (HS-2Ax10MGU, Molecular Devices, Sunnyvale, Calif.). […]

Experiment [2] concerns ShakerB-IR K^+ ion channel. The experiment can be described thus: RF (500 kHz) impedance interrogation of ShakerB-IR expressing Xenopus oocytes under voltage clamp. It is filed as cell-based. The settings on record: ~120 μM Cu^2+, 500 kHz RF signal, FIG. 10. As to the method:
Complementary deoxyribonucleic acid (cDNA) for the Shaker ion-channel variant ShakerB-IR (inactivation removed) was transformed in E. coli and linearized using the restriction enzyme, Kpn-1. cRNA was transcribed from linearized DNA, and 32 nL/cell of the transcribed RNA was injected into Xenopus oocytes. Recordings were done 24-48 hours after injection to allow time for protein expression. Currents were measured using two-microelectrode voltage clamp to verify ShakerB-IR ion channel expression. […]
(§2) RF voltage measurements were sampled through a head-stage voltage-follower operational amplifier (OPA356, Texas Instruments, Dallas, Tex.). The RF signal was high pass filtered (100 kHz, 48 DB/oct Bessel HPF; SIM965, Stanford Research Systems, Sunnyvale, Calif.) and detected by a lock-in amplification (0 integration time, SR844, Stanford Research Systems, Sunnyvale, Calif.). The quadrature outputs on the lock-in amplifier detected changes on the order of 10 microvolts, and time delays caused by the lock-in amplifier and HPF were accounted for prior to data analysis. TEVC data (command voltage, sensed voltage, measured current) and RF data (quadrature outputs from the lock-in amplifier) were sampled every 20 μs using a 16 bit A-D converter (ITC-18, HEKA Inst. Bellmore, N.Y.). […]

In experiment [3] the test system is control oocytes (endogenous protein response). As to the kind of experiment: RF (500 kHz) impedance interrogation of control Xenopus oocytes under voltage clamp. In kind it is cell-based. The following applies: ~120 μM Cu^2+, 500 kHz RF signal, FIG. 10.
Description: as §1, §2

Experiment [4] relates to ShakerB-IR K^+ ion channel. The settings on record: extracellular application; stated as known; cited from earlier work.

As to `[Cu+2]` [Cu^2+], the “effect on ShakerB-IR K^+ current” value in experiment [1] is reported as “blocked the ShakerB-IR K^+ current”. The “effect on charge displacement within the RF electric field (voltage-dependent RF impedance)” value in experiment [2] is on record as “increased charge displacement within the RF electric field”. Moreover, the “effect on charge displacement within the RF electric field in control cells” value in experiment [3] is “not observed to the same extent in control cells”. The “known effect of extracellular Cu^2+ on K^+ conductance” value in experiment [4] is reported as “shift the K^+ conductance to more depolarized levels”.
